Here are results for 20 molecules from patent US8008291B2 (Mimetica Pty Ltd, priority 2008, dated 2011).

SMILES strings stand for the structures.

The target in this assay is T1, human MC5R (hMC5R) (Homo sapiens, UniProt P33032).
T1 construct: purchased Perkin Elmer RBXMC5M400UA
T1 sequence (P33032 whole entry): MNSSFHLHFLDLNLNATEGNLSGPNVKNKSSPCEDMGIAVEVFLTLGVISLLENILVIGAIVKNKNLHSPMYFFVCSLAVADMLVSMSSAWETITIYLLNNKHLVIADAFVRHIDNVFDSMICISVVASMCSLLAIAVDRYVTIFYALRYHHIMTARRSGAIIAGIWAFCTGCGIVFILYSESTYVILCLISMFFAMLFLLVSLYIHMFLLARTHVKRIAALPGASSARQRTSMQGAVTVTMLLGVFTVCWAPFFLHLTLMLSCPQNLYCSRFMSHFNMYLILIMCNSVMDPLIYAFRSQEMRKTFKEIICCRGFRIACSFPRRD
The assay can be described thus: Human MC5R radioligand binding assay (membranes, [125I] NDP-MSH displacement). To be noted: hMC5R binding; tested as trifluoroacetate or hydrochloride salts, or free bases; read-out: MC5R radioligand IC50. The procedure, abridged: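 Displacement of [125I]NDP-MSH (radioiodinated in house, HPLC-purified) from hMC5R membranes by test compound measured after 1 hr incubation at 37° C.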
Broadly, the IC50 is the concentration that inhibits the measured activity by half. Take `N=C(N)NCCC[C@@H]1N[C@H](CNC(=O)c2ccc3ccccc3c2)CCN(CCc2ccc3ccccc3c2)C1=O` [Compound 264, N-(((3S,5S)-3-(3-guanidinopropyl)-1-(2-(naphthalen-2-yl)ethyl)-2-oxo-1,4-diazepan-5-yl)methyl)-2-naphthamide]: the IC50 was below 10000 nM.

As for `O=C(/C=C/c1ccc(OC(F)(F)F)c(F)c1)NC[C@@H]1CCN(Cc2cc(Cl)cc(Cl)c2)C(=O)[C@H](CCN2CCCCC2)N1` [Compound 536, (E)-N-(((3S,5S)-1-(3,5-dichlorobenzyl)-2-oxo-3-(2-(piperidin-1-yl)ethyl)-1,4-diazepan-5-yl)methyl)-3-(3-fluoro-4-(trifluoromethoxy)phenyl)acrylamide], the IC50 was below 100 nM.

Take `N=C(N)NCCC[C@@H]1N[C@H](CNC(=O)c2ccc3ccccc3c2)CCN(CC23CC4CC(CC(C4)C2)C3)C1=O` [Compound 202, N-(((3S,5S)-1-(1-adamantylmethyl)-3-(3-guanidinopropyl)-2-oxo-1,4-diazepan-5-yl)methyl)-2-naphthamide]: the IC50 is below 1000 nM.

Take `N=C(N)NCCC[C@@H]1N[C@H](CNC(=O)Cc2c[nH]c3ccccc23)CCN(CC2CCCCC2)C1=O` [Compound 481, N-(((3S,5S)-1-(cyclohexylmethyl)-3-(3-guanidinopropyl)-2-oxo-1,4-diazepan-5-yl)methyl)-2-(1 H-indol-3-yl)acetamide]: the concentration for half-maximal inhibition (IC50) is below 100 nM.

Take `N=C(N)NCCC[C@@H]1N[C@H](CNC(=O)c2ccc3ccccc3c2)CCN(CC(c2ccc(F)cc2)c2ccc(F)cc2)C1=O` [Compound 250, N-(((3S,5S)-1-(2,2-bis(4-fluorophenyl)ethyl)-3-(3-guanidinopropyl)-2-oxo-1,4-diazepan-5-yl)methyl)-2-naphthamide]: the IC50 is below 100 nM.

Consider `CC[C@H](CN1CC[C@@H](CNC(=O)c2ccc3cc(Cl)ccc3c2)N[C@@H](CCNC(=N)NC)C1=O)c1ccccc1` [Compound 458, 6-chloro-N-(((3S,5S)-3-(2-(3-methylguanidino)ethyl)-2-oxo-1-((S)-2-phenylbutyl)-1,4-diazepan-5-yl)methyl)-2-naphthamide], for which the IC50 was below 100 nM.

Regarding `O=C(/C=C/c1ccc(Cl)cc1)NC[C@@H]1CCN(CC(c2ccccc2)c2ccccc2)C(=O)[C@H](CNC(=O)c2ccccn2)N1` [Compound 393, N-(((2S,7S)-7-(((E)-3-(4-chlorophenyl)acrylamido)methyl)-4-(2,2-diphenylethyl)-3-oxo-1,4-diazepan-2-yl)methyl)picolinamide], the IC50 was below 10000 nM.

On to `COC(CN1CC[C@@H](CNC(=O)c2ccc3ccccc3c2)N[C@@H](CCCNC(=N)N)C1=O)c1ccccc1` (stereo partly drawn) [Compound 289, N-(((3S,5S)-3-(3-guanidinopropyl)-1-(2-methoxy-2-phenylethyl)-2-oxo-1,4-diazepan-5-yl)methyl)-2-naphthamide], for which the IC50 is below 1000 nM.

Turning to `CCCOC(=O)N[C@@H](Cc1ccc2ccccc2c1)[C@@H]1CCN(CC(c2ccccc2)c2ccccc2)C(=O)[C@H](CCCNC(=N)N)N1` [Compound 83, propyl (S)-1-((3S,5S)-1-(2,2-diphenylethyl)-3-(3-guanidinopropyl)-2-oxo-1,4-diazepan-5-yl)-2-(naphthalen-2-yl)ethylcarbamate], the IC50 is below 1000 nM.

`N=C(N)NCCC[C@@H]1N[C@H](CNC(=O)[C@H]2Cc3ccccc3CN2)CCN(CC(c2ccccc2)c2ccccc2)C1=O` [Compound 134, (R)—N-(((3S,5S)-1-(2,2-diphenylethyl)-3-(3-guanidinopropyl)-2-oxo-1,4-diazepan-5-yl)methyl)-1,2,3,4-tetrahydroisoquinoline-3-carboxamide]: the IC50 is below 1000 nM.

Consider `CC(C)NCC[C@@H]1N[C@H](CNC(=O)c2ccc3cc(Cl)ccc3c2)CCN(Cc2cc(Cl)cc(Cl)c2)C1=O` [Compound 438, 6-chloro-N-(((3S,5S)-1-(3,5-dichlorobenzyl)-3-(2-(isopropylamino)ethyl)-2-oxo-1,4-diazepan-5-yl)methyl)-2-naphthamide], for which the IC50 was below 10 nM.

On to `CC[C@H](CN1CC[C@@H](CNC(=O)c2ccc(Cl)c(Cl)c2)N[C@@H](CCN(CC)CC)C1=O)c1ccccc1` [Compound 426, 3,4-dichloro-N-(((3S,5S)-3-(2-(diethylamino)ethyl)-2-oxo-1-((S)-2-phenylbutyl)-1,4-diazepan-5-yl)methyl)benzamide], for which the IC50 was below 100 nM.

On to `Cc1ccc(/C=C/C(=O)NC[C@@H]2CCN(CC(c3ccccc3)c3ccccc3)C(=O)[C@H](CCCNC(=O)C3CCCCC3)N2)cc1` [Compound 294, N-(3-((2S,7S)-4-(2,2-diphenylethyl)-3-oxo-7-(((E)-3-p-tolylacrylamido)methyl)-1,4-diazepan-2-yl)propyl)cyclohexanecarboxamide], for which the IC50 was below 1000 nM.

Turning to `CN(C)C(=O)C(CN1CC[C@@H](CNC(=O)c2ccc3ccccc3c2)N[C@@H](CCCNC(=N)N)C1=O)c1ccccc1` (stereo partly drawn) [Compound 307, N-(((3S,5S)-1-(3-(dimethylamino)-3-oxo-2-phenylpropyl)-3-(3-guanidinopropyl)-2-oxo-1,4-diazepan-5-yl)methyl)-2-naphthamide], the IC50 is below 10000 nM.

Turning to `CC[C@H](CN1CC[C@@H](CNC(=O)c2ccc(Cl)c(Cl)c2)N[C@@H](CCN2CCC(C(=O)O)CC2)C1=O)c1ccccc1` [Compound 451, 1-(2-((2S,7S)-7-((3,4-dichlorobenzamido)methyl)-3-oxo-4-((S)-2-phenylbutyl)-1,4-diazepan-2-yl)ethyl)piperidine-4-carboxylic acid], the concentration for half-maximal inhibition (IC50) was below 100 nM.

Consider `CC[C@H](CN1CC[C@@H](CNC(=O)c2ccc(Cl)c(Cl)c2)N[C@@H](CCN2CCC(O)CC2)C1=O)c1ccccc1` [Compound 450, 3,4-dichloro-N-(((3S,5S)-3-(2-(4-hydroxypiperidin-1-yl)ethyl)-2-oxo-1-((S)-2-phenylbutyl)-1,4-diazepan-5-yl)methyl)benzamide], for which the IC50 is below 100 nM.

For the molecule `NCCC[C@@H]1N[C@H](CNC(=O)c2ccc3ccccc3c2)CCN(Cc2cccc(Cl)c2)C1=O` [Compound 341, N-(((3S,5S)-3-(3-aminopropyl)-1-(3-chlorobenzyl)-2-oxo-1,4-diazepan-5-yl)methyl)-2-naphthamide], the IC50 is below 10000 nM.

As to `CC(=O)N[C@H](CN1CC[C@@H](CNC(=O)c2ccc3ccccc3c2)N[C@@H](CCCNC(=N)N)C1=O)c1ccccc1` [Compound 265, N-(((3S,5S)-1-((S)-2-acetamido-2-phenylethyl)-3-(3-guanidinopropyl)-2-oxo-1,4-diazepan-5-yl)methyl)-2-naphthamide], the IC50 was below 10000 nM.

For `O=C(/C=C/c1ccc(Cl)cc1)NC[C@@H]1CCN(CC(c2ccccc2)c2ccccc2)C(=O)[C@H](CCN2CCOCC2)N1` [Compound 403, (E)-3-(4-chlorophenyl)-N-(((3S,5S)-1-(2,2-diphenylethyl)-3-(2-morpholinoethyl)-2-oxo-1,4-diazepan-5-yl)methyl)acrylamide], the IC50 was below 100 nM.

On to `CC1CCC(C)N1CC[C@@H]1N[C@H](CNC(=O)/C=C/c2ccc(Cl)cc2)CCN(CC(c2ccccc2)c2ccccc2)C1=O` (stereo partly drawn) [Compound 405, (E)-3-(4-chlorophenyl)-N-(((3S,5S)-3-(2-(2,5-dimethylpyrrolidin-1-yl)ethyl)-1-(2,2-diphenylethyl)-2-oxo-1,4-diazepan-5-yl)methyl)acrylamide], for which the IC50 is below 100 nM.
